According to patent publication US20050084916A1, “Identification of the IkappaBNS protein and its products” (priority 2001, published 2005):

Columns and labels:
[1] = test system: thymocytes in N15tg RAG-2−/− H-2b FTOC; conditions: cited from earlier work
[2] = test system: IκBNS mRNA; assay type: cell-based, mouse
[3] = test system: NF-κB; experiment: NF-κB luciferase reporter assay in transfected Cos-7 cells; assay type: cell-based
[4] = test system: NF-κB; experiment: NF-κB-sensitive reporter constructs in transiently transfected Jurkat T cells; assay type: cell-based

## CC(C)C[C@H](N)C(=O)O [L4]
[1]
  thymic selection outcome: positive selection
[2]
  IκBNS mRNA induction: do not upregulate

## CCCCCCCCCCCCCC(=O)O[C@@H]1[C@@H](C)[C@@]2(O)[C@@H](C=C(CO)C[C@]3(O)C(=O)C(C)=C[C@@H]23)[C@@H]2C(C)(C)[C@]12OC(C)=O [PMA, phorbol-12-myristate-13-acetate]
[3]; 50 ng/ml for 7 h
  increase in NF-κB luciferase activity relative to untreated cells: 5-10 fold

B1: IκBNS: novel 327 amino acid IκB family protein with 7 ankyrin domains (SEQ ID NO: 4); expressed from Flag-tagged pcDNA3.1 construct (protein)
chain: MEDSLDTRLYPEPSLSQVGSWRVSSLPSGSPQLPSPTGPSLETARAHILALGPQQLLAQMEDDTYSLQGWRVSPSGPQPGPSLEARAHLALGPQQLLAQDEEGDTLLHLFAARGLRWAAYAAAEVLQMYRQLDIREHKGKTPLLVAAAANQPLIVEDLLDEEGDTLLHLFAARGLRWAAYAAAEVLQYRLDIREHKGKTPLLVAAAANQPLIVEDLLSLGAEPNATDHQGRSVLHVAATYGLPGVLSAVFKSGIQVDLEARDFEGLTPLHTAVLALNLGAEPNADHQGRSVLHVAATYGLPGVLAVSGQVDLEARDFEGLTPLHTALALNAAMLPASVCPRMQNSQARDRLTCVQMLLQMGASHTSQEIKSNKTILHLAVQAANPTLVQLAMPCPRQARDRLCVMLLQMGAHTSQEIKSNKTLHLAVQAANPTLVQLLLGLPRGDLRAFVNMKAHGNTALHMAAALPPGPPQEAIVRHLLAAGADPTLRNLENEQPVLLLPRGDLRFVNMKAHGNTALHMAAALPPGPQEAIVRHLLAAGADPTLRNLEGEQPVHLLRPGGPEGLRQLLKRSRTAPPGLSSHLLRPGGPEGLRQLLKRSRAPPGLSS
modifications: Flag tag; mouse
notes: expressed from Flag-tagged pcDNA3.1 construct
[3]; 10 μg construct, PMA 50 ng/ml 7 h
  effect of cotransfection on PMA-induced NF-κB-driven luciferase activity: reduced NF-κB-driven luciferase activity to a level approaching that of cells transfected with the vector only
[4]
  activity of NF-κB-sensitive reporter constructs: reduced the activity
